Measured values published in ChEMBL document CHEMBL1201862, “PubChem BioAssay data set” (2004).
The source made the active and inactive calls.

Legend:
[1] = target: T1, Hexokinase HKDC1 (Homo sapiens, UniProt Q2TB90); experiment: HKDC1 hexokinase activators, dose response, biochemical, W721R variant (AID 504730); format: functional
T1 sequence (Q2TB90 whole entry): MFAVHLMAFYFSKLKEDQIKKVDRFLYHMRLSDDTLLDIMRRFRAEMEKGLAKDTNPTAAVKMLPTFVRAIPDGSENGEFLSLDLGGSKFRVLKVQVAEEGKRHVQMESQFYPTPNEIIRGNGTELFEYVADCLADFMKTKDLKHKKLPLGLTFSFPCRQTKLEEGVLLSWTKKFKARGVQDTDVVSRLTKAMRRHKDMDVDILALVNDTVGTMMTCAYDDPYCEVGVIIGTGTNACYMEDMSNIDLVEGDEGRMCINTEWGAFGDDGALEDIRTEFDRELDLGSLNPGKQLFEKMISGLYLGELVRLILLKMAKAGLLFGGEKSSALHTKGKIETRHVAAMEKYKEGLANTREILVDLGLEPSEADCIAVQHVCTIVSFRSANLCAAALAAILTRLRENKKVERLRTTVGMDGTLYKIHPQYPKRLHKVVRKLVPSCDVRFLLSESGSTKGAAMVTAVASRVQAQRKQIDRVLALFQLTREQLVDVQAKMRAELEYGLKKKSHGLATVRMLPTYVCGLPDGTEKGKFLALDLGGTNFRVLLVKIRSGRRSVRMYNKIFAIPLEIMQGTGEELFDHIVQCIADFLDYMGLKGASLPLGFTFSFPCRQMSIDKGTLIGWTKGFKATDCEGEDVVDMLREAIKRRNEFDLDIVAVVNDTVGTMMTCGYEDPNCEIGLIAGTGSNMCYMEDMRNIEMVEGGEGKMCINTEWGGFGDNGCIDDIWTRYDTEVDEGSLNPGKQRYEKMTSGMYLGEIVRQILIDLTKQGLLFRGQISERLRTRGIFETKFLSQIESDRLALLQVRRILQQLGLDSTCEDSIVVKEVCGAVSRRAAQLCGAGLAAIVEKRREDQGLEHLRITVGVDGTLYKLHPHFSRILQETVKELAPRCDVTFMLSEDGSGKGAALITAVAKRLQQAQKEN

[2] = target: T2, Hexokinase-1 (Homo sapiens, UniProt P19367); experiment: hexokinase 1 activators, dose response, selectivity assay for HKDC1 activator project, biochemical (AID 504762); format: functional
T2 sequence (P19367 whole entry): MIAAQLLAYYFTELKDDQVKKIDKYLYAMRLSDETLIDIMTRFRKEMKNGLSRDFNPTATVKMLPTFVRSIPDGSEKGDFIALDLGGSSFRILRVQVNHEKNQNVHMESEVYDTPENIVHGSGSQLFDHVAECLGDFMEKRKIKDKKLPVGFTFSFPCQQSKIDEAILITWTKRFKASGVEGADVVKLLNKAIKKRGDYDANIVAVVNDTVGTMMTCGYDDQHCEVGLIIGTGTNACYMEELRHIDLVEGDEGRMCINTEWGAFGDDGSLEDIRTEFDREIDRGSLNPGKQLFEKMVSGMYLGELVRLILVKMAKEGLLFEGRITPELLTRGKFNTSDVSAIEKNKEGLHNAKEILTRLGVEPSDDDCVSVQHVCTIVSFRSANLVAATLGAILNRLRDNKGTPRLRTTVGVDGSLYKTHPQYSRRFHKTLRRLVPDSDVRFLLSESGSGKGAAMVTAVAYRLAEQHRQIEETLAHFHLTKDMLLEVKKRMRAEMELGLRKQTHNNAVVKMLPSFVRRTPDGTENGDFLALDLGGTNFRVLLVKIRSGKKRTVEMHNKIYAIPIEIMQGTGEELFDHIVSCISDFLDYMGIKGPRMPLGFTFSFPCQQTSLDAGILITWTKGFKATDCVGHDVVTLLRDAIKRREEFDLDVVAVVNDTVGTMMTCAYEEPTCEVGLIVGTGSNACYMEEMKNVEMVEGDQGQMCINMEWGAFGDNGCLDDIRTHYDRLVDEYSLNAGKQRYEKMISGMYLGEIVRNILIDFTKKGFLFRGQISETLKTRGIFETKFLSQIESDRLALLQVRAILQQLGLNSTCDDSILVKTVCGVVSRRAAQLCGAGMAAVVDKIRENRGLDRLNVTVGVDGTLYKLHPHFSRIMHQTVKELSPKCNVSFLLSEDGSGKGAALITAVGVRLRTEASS

[3] = target: T3, Protein RecA (Mycobacterium tuberculosis, UniProt P9WHJ3); experiment: Fluorescence Cell-Free Homogeneous Dose Retest to Identify Inhibitors of RecA-Intein Splicing Activity. [Related pubchem assays (depositor defined):AID2097, AID2223, AID489010, AID492950]; format: functional
T3 sequence (P9WHJ3 whole entry): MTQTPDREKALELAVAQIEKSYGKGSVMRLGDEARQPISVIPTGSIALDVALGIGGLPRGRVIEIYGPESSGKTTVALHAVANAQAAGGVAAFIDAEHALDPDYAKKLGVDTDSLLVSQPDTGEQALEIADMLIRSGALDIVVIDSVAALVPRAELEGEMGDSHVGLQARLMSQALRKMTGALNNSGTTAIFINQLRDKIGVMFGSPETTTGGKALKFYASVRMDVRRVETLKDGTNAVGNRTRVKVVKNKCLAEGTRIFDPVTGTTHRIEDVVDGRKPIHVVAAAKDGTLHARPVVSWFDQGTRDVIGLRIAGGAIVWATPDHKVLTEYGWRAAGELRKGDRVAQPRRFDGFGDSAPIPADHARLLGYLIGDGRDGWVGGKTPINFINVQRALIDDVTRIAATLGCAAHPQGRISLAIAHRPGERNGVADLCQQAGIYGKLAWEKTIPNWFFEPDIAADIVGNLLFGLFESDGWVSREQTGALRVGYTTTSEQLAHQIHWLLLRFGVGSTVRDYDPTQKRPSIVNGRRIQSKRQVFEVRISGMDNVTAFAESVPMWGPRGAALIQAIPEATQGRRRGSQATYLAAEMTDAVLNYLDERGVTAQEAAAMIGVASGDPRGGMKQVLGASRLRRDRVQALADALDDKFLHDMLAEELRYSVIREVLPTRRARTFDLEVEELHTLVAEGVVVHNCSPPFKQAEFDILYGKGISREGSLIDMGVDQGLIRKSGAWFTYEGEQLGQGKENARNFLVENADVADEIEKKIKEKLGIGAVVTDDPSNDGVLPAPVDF

[4] = target: Paired box protein Pax-8 (Homo sapiens, UniProt Q06710); experiment: inhibitors of PAX8-driven TPO luciferase reporter, dose response, RMG-I cells, cherry-pick (AID 687027); format: functional, cell-based;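 note: luciferase reporter driven by Pax8 target thyroperoxidase promoter measured by SteadyGlo luminescence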
[5] = non-specific cell cytotoxicity, dose response, cytotoxicity control for PAX8 inhibitor project, plate reader, dry powder samples (AID 743021); format: functional, cell-based
[6] = target: T4, Voltage-gated N-type calcium channel alpha-1B subunit/Amyloid beta A4 precursor protein-binding family A member 1 (Homo sapiens, UniProt Q00975+Q02410); format: protein assay
[7] = target: T5, Replicative DNA helicase DnaB (Mycobacterium tuberculosis, UniProt P9WMR3); experiment: DnaB intein splicing inhibitors, dose response, biochemical, cell-free fluorescence (AID 449749); format: functional
T5 sequence (P9WMR3 whole entry): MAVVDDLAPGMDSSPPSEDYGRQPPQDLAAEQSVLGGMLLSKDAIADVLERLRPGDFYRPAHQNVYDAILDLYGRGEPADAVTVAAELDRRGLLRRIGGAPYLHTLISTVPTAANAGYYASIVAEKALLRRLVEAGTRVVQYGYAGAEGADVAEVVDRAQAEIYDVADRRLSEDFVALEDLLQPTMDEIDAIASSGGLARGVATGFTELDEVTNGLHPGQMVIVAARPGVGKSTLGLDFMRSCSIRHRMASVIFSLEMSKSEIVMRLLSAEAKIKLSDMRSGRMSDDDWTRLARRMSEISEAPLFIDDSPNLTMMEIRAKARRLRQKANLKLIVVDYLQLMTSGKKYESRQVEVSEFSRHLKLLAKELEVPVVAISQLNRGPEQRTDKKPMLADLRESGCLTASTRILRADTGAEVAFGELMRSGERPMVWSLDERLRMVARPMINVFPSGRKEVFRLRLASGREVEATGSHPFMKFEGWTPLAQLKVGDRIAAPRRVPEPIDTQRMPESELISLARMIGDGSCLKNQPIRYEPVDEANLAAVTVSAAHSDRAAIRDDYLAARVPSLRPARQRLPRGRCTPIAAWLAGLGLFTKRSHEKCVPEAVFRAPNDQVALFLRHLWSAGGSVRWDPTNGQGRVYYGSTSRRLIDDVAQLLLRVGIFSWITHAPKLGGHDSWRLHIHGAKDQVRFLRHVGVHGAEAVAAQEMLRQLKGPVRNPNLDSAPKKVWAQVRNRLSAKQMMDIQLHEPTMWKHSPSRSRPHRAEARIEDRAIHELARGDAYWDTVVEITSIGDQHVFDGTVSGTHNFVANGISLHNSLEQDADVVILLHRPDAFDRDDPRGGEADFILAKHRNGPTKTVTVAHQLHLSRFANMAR

[8] = target: T4, Voltage-gated N-type calcium channel alpha-1B subunit/Amyloid beta A4 precursor protein-binding family A member 1; format: protein assay; remark: listed apart in the source
[9] = inhibitors of CMV-promoter luciferase reporter, dose response, counter-screen for Pax8 inhibitor project, cell-based, HEK293, luminescence, dry powder (AID 743020); format: functional
[10] = target: Peroxisome proliferator-activated receptor gamma/Nuclear receptor coactivator 2 (Homo sapiens, UniProt P37231); format: functional;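 note: agonist potency for raising coactivator recruitment to the receptor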
[11] = target: Peroxisome proliferator-activated receptor gamma/Nuclear receptor coactivator 1 (Homo sapiens, UniProt P37231); format: functional;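 note: agonist potency as compounds enhance coactivator SRC-1 recruitment to PPARgamma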
[12] = target: T6, Mucolipin-3 (Homo sapiens, UniProt Q8TDD5); experiment: Fluorescence counterscreen assay for […] agonists: dose response cell-based high-throughput screening assay to identify agonists of the transient receptor potential channel ML3 (TRPML3). [Related pubchem assays: 1424, 1448 ]; format: functional
T6 sequence (Q8TDD5 whole entry): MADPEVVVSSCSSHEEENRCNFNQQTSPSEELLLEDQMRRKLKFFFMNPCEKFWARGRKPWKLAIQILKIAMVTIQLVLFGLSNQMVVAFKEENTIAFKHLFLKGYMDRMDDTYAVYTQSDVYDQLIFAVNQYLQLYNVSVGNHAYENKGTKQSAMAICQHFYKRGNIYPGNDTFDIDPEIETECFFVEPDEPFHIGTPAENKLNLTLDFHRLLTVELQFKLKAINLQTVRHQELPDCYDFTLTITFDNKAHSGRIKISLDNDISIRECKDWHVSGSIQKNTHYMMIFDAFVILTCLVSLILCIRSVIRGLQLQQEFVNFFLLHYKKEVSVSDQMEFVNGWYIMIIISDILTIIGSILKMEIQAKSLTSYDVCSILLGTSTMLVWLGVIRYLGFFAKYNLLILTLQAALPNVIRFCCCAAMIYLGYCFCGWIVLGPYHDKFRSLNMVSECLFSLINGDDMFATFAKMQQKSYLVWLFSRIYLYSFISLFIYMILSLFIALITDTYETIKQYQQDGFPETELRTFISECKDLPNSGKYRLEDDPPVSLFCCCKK

[13] = target: Peroxisome proliferator-activated receptor gamma/Nuclear receptor coactivator 3 (Homo sapiens, UniProt P37231); format: functional;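 note: agonist potency for raising coactivator recruitment to the receptor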
[14] = target: T7, Calpain-2 catalytic subunit (Sus scrofa, UniProt P43367); experiment: pig calpain II inhibitor potency, dose response, biochemical, fluorogenic peptide substrate (AID 1420); format: functional
T7 sequence (P43367 whole entry): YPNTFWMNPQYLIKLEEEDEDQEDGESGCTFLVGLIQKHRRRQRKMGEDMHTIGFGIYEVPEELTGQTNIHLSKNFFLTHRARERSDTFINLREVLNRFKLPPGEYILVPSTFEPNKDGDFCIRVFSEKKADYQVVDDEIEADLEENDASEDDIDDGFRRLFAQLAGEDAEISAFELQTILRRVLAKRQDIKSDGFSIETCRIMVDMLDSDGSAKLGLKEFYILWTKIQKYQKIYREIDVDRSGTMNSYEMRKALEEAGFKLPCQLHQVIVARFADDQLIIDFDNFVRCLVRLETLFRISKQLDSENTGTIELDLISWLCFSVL

[15] = target: Ion channel NompC (Danio rerio, UniProt Q7T1G6); experiment: Dose response cell-based high-throughput screening assay for agonists of the transient receptor potential channel N1 (TRPN1). [Related pubchem assays (depositor defined):AID1424, AID1448]; format: functional
[16] = target: T8, Leucine aminopeptidase (Plasmodium falciparum 3D7, UniProt Q8IL11); experiment: P. falciparum M17LAP inhibitors, primary screen, biochemical, fluorogenic H-Leu-NHMec substrate, 1536-well (AID 1619); format: functional
T8 sequence (Q8IL11 whole entry): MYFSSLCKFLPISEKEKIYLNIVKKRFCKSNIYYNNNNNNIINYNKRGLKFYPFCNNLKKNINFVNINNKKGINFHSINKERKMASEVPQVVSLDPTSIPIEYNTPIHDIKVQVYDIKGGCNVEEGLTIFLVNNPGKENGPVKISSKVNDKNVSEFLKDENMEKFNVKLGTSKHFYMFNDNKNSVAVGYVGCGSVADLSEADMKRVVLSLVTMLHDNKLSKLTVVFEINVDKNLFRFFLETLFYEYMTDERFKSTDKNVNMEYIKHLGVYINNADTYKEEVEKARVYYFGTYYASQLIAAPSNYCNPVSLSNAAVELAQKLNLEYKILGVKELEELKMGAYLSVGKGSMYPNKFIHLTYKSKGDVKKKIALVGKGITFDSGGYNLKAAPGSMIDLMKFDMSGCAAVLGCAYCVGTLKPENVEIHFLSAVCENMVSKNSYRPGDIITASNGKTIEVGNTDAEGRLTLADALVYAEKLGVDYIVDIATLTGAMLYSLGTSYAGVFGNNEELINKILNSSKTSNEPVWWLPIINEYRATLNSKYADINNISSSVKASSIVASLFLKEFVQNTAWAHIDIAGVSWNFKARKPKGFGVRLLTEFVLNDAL

[17] = enhancers of respiration in Yfh1-depleted yeast, dose response, Friedreich's ataxia, plus single-dose screen (AID 1465); format: functional;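 note: yeast depleted of Yfh1p frataxin homolog grown on glycerol needing respiration; WST-1 tetrazolium dye reduction as measure of cellular dehydrogenase metabolic activity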

T4 sequence (Q00975 whole entry): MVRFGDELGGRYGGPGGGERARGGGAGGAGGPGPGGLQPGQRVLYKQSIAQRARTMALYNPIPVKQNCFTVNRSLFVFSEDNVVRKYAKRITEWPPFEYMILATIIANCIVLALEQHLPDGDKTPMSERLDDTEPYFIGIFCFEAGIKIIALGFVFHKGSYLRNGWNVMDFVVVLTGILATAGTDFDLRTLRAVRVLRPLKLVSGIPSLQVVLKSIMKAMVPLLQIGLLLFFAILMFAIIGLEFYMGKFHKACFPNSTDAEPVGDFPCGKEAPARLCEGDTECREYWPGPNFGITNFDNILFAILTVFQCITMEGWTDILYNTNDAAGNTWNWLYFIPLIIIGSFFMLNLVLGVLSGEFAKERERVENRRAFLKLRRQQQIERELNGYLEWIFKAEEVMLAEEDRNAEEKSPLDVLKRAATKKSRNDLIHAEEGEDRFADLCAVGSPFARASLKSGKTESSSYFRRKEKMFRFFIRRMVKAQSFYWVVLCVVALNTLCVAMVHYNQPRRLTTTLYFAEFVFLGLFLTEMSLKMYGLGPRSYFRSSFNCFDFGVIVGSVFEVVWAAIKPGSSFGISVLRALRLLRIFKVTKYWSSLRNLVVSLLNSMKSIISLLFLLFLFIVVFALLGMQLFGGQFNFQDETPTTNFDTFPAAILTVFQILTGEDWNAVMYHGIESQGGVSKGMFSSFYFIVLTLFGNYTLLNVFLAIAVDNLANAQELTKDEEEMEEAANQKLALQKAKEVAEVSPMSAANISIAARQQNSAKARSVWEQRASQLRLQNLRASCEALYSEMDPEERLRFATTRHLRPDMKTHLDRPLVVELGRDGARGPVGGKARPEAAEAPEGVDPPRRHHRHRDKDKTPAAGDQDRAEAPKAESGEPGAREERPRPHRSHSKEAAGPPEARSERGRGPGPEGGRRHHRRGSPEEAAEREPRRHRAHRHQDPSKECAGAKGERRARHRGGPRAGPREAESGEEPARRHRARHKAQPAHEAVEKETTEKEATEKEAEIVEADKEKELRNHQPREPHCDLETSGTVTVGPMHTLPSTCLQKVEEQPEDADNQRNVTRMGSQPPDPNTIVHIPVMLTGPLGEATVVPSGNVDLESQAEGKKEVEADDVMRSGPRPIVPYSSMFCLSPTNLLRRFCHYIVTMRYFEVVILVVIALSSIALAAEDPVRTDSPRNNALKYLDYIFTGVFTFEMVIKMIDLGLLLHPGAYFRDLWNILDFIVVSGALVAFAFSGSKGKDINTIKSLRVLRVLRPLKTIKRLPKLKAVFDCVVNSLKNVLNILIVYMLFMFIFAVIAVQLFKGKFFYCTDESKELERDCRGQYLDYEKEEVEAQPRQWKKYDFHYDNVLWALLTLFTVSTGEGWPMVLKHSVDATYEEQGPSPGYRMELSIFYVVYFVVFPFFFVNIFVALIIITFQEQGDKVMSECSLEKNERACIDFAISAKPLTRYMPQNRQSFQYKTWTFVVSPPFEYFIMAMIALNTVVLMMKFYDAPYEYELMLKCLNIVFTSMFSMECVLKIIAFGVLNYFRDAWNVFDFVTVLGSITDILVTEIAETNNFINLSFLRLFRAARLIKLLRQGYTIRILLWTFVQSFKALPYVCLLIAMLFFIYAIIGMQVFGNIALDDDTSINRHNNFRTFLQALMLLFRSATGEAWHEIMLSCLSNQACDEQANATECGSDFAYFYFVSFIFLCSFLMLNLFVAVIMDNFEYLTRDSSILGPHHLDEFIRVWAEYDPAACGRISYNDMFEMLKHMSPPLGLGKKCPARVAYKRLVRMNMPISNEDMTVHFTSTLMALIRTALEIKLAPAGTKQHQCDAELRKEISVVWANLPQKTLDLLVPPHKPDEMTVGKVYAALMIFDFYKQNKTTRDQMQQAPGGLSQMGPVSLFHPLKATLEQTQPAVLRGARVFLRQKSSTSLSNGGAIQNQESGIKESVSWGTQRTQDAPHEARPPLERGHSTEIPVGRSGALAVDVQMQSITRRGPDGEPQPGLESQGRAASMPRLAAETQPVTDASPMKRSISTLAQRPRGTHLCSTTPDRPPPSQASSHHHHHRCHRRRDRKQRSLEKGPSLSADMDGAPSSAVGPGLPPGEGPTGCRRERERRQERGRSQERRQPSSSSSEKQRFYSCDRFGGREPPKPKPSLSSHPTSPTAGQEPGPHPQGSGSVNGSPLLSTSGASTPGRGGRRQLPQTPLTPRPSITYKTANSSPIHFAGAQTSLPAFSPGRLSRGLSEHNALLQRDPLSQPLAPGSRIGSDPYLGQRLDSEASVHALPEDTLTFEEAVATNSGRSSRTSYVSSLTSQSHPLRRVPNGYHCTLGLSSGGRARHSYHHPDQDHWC
T4 sequence (Q02410 whole entry): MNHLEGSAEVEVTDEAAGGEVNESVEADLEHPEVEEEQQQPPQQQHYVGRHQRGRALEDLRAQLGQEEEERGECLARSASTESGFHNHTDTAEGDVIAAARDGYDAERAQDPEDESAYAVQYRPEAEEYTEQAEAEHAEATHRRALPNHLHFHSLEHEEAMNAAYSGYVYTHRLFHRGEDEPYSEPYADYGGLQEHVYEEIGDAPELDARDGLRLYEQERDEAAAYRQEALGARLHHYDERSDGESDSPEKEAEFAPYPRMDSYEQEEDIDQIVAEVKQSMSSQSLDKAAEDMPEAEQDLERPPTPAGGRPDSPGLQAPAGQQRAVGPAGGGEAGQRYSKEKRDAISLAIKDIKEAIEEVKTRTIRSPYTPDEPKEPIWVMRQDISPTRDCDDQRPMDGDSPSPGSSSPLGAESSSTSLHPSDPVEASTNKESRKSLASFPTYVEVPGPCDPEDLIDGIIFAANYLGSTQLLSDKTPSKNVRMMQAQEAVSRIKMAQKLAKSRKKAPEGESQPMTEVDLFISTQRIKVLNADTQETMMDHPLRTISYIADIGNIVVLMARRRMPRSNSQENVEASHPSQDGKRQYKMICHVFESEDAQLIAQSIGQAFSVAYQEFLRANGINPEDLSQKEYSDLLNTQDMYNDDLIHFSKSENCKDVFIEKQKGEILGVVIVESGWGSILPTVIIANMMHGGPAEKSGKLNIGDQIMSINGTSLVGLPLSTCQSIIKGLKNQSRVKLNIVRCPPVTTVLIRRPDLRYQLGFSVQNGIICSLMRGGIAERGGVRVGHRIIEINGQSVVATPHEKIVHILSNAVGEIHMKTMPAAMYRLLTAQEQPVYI
Chain of Ion channel NompC (Q7T1G6 whole entry): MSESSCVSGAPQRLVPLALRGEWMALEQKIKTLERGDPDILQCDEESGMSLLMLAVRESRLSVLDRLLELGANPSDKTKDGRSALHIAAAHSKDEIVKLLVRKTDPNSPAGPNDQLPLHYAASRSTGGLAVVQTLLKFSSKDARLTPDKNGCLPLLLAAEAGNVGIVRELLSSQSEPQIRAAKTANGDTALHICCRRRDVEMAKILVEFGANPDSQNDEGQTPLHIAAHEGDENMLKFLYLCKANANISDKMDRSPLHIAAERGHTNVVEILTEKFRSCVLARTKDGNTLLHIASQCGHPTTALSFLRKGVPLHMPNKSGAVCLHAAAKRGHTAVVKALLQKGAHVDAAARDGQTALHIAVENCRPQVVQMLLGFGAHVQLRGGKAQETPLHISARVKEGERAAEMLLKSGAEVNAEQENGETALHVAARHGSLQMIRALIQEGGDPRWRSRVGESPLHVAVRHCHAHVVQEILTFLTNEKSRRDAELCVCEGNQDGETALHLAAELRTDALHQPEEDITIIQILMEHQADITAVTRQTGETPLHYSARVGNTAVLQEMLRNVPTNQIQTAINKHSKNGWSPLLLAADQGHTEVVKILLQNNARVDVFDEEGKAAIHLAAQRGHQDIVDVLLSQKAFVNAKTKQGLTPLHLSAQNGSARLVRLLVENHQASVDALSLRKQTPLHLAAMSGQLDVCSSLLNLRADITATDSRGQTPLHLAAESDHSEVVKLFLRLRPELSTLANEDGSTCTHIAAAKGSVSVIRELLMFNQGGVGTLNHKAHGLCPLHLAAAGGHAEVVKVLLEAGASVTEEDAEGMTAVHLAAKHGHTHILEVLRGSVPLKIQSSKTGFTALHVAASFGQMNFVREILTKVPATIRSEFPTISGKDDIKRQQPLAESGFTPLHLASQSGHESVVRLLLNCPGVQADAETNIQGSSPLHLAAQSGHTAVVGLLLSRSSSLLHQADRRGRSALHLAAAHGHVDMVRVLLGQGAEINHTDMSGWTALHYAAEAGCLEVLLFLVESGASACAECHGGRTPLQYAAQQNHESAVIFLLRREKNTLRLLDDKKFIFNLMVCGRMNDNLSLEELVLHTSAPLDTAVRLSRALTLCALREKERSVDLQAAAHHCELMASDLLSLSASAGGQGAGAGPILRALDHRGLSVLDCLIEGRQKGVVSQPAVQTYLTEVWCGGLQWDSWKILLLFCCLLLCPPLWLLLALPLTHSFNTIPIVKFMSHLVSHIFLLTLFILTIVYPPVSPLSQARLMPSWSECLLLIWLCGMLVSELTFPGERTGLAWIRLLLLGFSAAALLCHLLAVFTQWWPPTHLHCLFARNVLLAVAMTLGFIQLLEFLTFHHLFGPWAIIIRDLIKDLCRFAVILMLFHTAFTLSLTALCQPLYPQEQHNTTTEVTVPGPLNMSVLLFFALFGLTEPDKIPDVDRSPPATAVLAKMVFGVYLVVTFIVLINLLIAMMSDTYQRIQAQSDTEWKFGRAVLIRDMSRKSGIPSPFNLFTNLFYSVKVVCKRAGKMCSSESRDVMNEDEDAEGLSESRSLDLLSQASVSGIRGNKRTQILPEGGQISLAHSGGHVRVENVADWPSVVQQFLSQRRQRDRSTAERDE

With `Cc1ccc(/N=C2\C(=S)N(c3ccc(C)cc3)C(=N)N2/N=C/c2ccc(Cl)cc2)cc1` the EC50 [1] was > 80 µM (inactive) and the EC50 [2] was > 80 µM (inactive).
With `N#Cc1nccnc1S(=O)(=O)c1cccs1` the EC50 [3] was 6.36 µM (active), the AC50 [4] was 4.59 µM (active) and the AC50 [5] was 13.5 µM (active). For the same compound, the IC50 [6] was 22.7 µM (active), the AC50 [7] was 8.49 µM (active) and the IC50 [8] was 1.13 µM (active). The AC50 [9] was 23 µM (active).
With `CN1CCS/C1=C\C=C1/SC(=S)N(CC(=O)O)C1=O` the EC50 [10] was 62.2 µM (not active), the EC50 [11] was 89.8 µM (not active) and the EC50 [12] was 7.93 µM (active). The EC50 [13] was > 79.4 µM (not active), the IC50 [14] was 7.69 µM (not active) and the EC50 [15] was 5.26 µM (active). For the same compound, the IC50 [16] was 52.3 µM (active) and the EC50 [17] was > 100 µM (active).
